Source: patent EP4700027A1, “CRYSTALLINE FORM OF NITROGEN-CONTAINING TETRACYCLIC COMPOUND AND PREPARATION METHOD THEREFOR” (Jiangsu Hengrui Pharmaceuticals Co., Ltd., priority 2023, dated 2024)

Tests used:
[1] = system: MIA PaCa-2 cells; experiment: MIA PaCa-2 cell proliferation assay (CellTiter-Glo); format: cell-based; conditions: Homo sapiens; inhibitory activity against MIA PaCa-2 cell proliferation, 72 h incubation
Description: The inhibitory activity of the compound of the present disclosure against MIA PaCa-2 cell proliferation was measured. Below is a brief description of the experimental method: MIA PaCa-2 cells (ATCC, CRL-1420) were cultured in DMEM/HIGH GLUCOSE medium (GE, SH30243.01) containing 10% fetal bovine serum (Corning, 35-076-CV) and 2.5% horse serum (Beyotime Biological Tech., C0262) (i.e., complete medium). On the first day of the experiment, MIA PaCa-2 cells were seeded into a 96-well plate at a density of 500 cells/well using complete medium, with 90 µL of cell suspension per well, and the plate was incubated overnight in a 5% CO2 cell incubator at 37 °C. On the second day, the test compound, prepared in complete medium and serially diluted, was added at 10 µL/well. The final concentrations of the compound were 9 concentration points obtained by a 5-fold serial dilution from 10 µM. A blank control containing 0.5% DMSO was set up. The plate was incubated for 72 h in a 5% CO2 cell incubator at 37 °C. […] After the plate was left to stand at room temperature for 10 min, the luminescence signal values were measured using a multifunctional microplate reader (PerkinElmer, EnVision2015). The IC50 value for the inhibitory activity of the compound was calculated using Graphpad Prism software. […]

[2] = system: H358 cells; experiment: H358 cell proliferation assay (CellTiter-Glo); format: cell-based; conditions: Homo sapiens, NCI-H358; inhibitory activity against H358 cell proliferation, 120 h incubation
Description: The inhibitory activity of the compound of the present disclosure against H358 cell proliferation was measured. Below is a brief description of the experimental method: H358 cells (ATCC, CRL-5807) were cultured in RPMI1640 medium (Hyclone, SH30809.01) containing 10% fetal bovine serum (Corning, 35-076-CV) (i.e., complete medium). On the first day of the experiment, H358 cells were seeded into a 96-well plate at a density of 1200 cells/well using complete medium, with 100 µL of cell suspension per well, and the plate was incubated overnight in a 5% CO2 cell incubator at 37 °C. On the second day, the test compound, prepared in complete medium and serially diluted, was added at 10 µL/well. The final concentrations of the compound were 9 concentration points obtained by a 5-fold serial dilution from 10 µM. A blank control containing 0.5% DMSO was set up. The plate was incubated for 120 h in a 5% CO2 cell incubator at 37 °C. On the seventh day, the 96-well cell plate was removed from the incubator, and Cell Titer-Glo® Luminescent Cell Viability Assay (Promega, G7573) was added at 50 µL/well. After the plate was left to stand at room temperature for 10 min, the luminescence signal values were measured using a multifunctional microplate reader (PerkinElmer, EnVision® 2105), and the IC50 value for the inhibitory activity of the compound was calculated using Graphpad Prism software. Table 1. […]

[3] = Influencing factor stability study on crystal forms (light, high temperature, high humidity, 30 days); format: physicochemical
[4] = Dynamic vapor sorption (DVS) hygroscopicity testing; format: physicochemical; conditions: for desorption process of the sample versus its adsorption process: humidity changing from 0% to 95% RH
Text: According to the description of hygroscopicity characteristics and the definitions of hygroscopic weight gains in "General Rule 9103, Guidelines for Hygroscopicity Trials for Pharmaceuticals" in the Chinese Pharmacopoeia, Volume IV, 2015 Edition, • deliquescent: sufficient water is absorbed to form a liquid; • extremely hygroscopic: the hygroscopic weight gain is not less than 15%; • hygroscopic: the hygroscopic weight gain is less than 15% but not less than 2%; • slightly hygroscopic: the hygroscopic weight gain is less than 2% but not less than 0.2%; nonhygroscopic or practically nonhygroscopic: the hygroscopic weight gain is less than 0.2%.
DVS refers to dynamic vapor sorption: The analysis was performed using SMS DVS Advantage; at 25 °C, the humidity was changed as follows: 50%-95%-0%-95%-50%, in steps of 10% (5% for the last step) (specific humidity ranges are shown in corresponding patterns, and those listed here were used in most cases); the criterion was dm/dt being not greater than 0.002%.

[5] = Light exposure (4500 Lux), 5 days
[6] = Light exposure (4500 Lux), 10 days
[7] = Light exposure (4500 Lux), 30 days
[8] = accelerated experimental conditions (70% RH)
[9] = normal storage conditions (25 °C and 60% RH)

## C=CC(=O)N1CCN2C(=O)c3cc(F)c(-c4ccc(F)c5sc(N)c(C#N)c45)c4c(Cl)nn(c34)CC[C@H]2C1 (atropisomer, axis not shown) [Compound 1, (S)-4-((S)-10-acryloyl-4-chloro-2-fluoro-14-oxo-8,8a,9,10,11,12-hexahydro-7H,14H-pyrazino[1',2':5,6][1,5]diazocino[3,2,1-hi]indazol-3-yl)-2-amino-7-fluorobenzo[b]thiophene-3-carbonitrile]
[1]
  IC50: 0.28 nM
[2]
  IC50: 0.74 nM

## C=CC(=O)N1CCN2C(=O)c3cc(F)c(-c4ccc(F)c5sc(N)c(C#N)c45)c4c(Cl)nn(c34)CC[C@H]2C1 [crystal form F]
[3]; 40 °C, 5 days
  Color and state: Off-white solid
  Crystal form: Did not change
  Purity (%): 97.8%
[3]; 40 °C, 10 days
  Color and state: Off-white solid
  Crystal form: Did not change
  Purity (%): 97.5%
[3]; 40 °C, 30 days
  Color and state: Off-white solid
  Crystal form: Did not change
  Purity (%): 96.7%
[3]; 60 °C, 5 days
  Color and state: Off-white solid
  Crystal form: Did not change
  Purity (%): 97.8%
[3]; 60 °C, 10 days
  Color and state: Off-white solid
  Crystal form: Did not change
  Purity (%): 97.7%
[3]; 60 °C, 30 days
  Color and state: Off-white solid
  Crystal form: Did not change
  Purity (%): 97.3%
[3]; 75% RH, 5 days
  Color and state: Off-white solid
  Crystal form: Did not change
  Purity (%): 97.9%
[3]; 75% RH, 10 days
  Color and state: Off-white solid
  Crystal form: Did not change
  Purity (%): 97.9%
[3]; 75% RH, 30 days
  Color and state: Off-white solid
  Crystal form: Did not change
  Purity (%): 97.9%
[3]; 92.5% RH, 5 days
  Color and state: Off-white solid
  Crystal form: Did not change
  Purity (%): 97.9%
[3]; 92.5% RH, 10 days
  Color and state: Off-white solid
  Crystal form: Did not change
  Purity (%): 97.9%
[3]; 92.5% RH, 30 days
  Color and state: Off-white solid
  Crystal form: Did not change
  Purity (%): 97.9%
[3]; Initial, 0 days
  Color and state: Off-white solid
  Crystal form: Crystal form F
  Purity (%): 97.9%
[3]; [5]
  Color and state: Off-white solid
  Crystal form: Did not change
  Purity (%): 97.8%
[3]; [6]
  Color and state: Off-white solid
  Crystal form: Did not change
  Purity (%): 97.8%
[3]; [7]
  Color and state: Off-white solid
  Crystal form: Did not change
  Purity (%): 97.7%
[4]; [8]
  hygroscopic weight gain: about 6.44%
[4]
  crystal form re-identified after DVS testing: did not change
  desorption process of the sample versus its adsorption process: did not overlap
[4]; extreme conditions (90% RH)
  hygroscopic weight gain: about 6.65%
[4]; [9]
  hygroscopic weight gain: about 6.35%

## C=CC(=O)N1CCN2C(=O)c3cc(F)c(-c4ccc(F)c5sc(N)c(C#N)c45)c4c(Cl)nn(c34)CC[C@H]2C1 [crystal form N]
[3]; 60 °C, 30 days
  Color and state: Off-white solid
  Crystal form: Did not change
  Purity (%): 98.9%
[3]; 75% RH, 7 days
  Color and state: Off-white solid
  Crystal form: Did not change
  Purity (%): 99.2%
[3]; 75% RH, 14 days
  Color and state: Off-white solid
  Crystal form: Did not change
  Purity (%): 99.1%
[3]; 75% RH, 30 days
  Color and state: Off-white solid
  Crystal form: Did not change
  Purity (%): 99.1%
[4]; [8]
  hygroscopic weight gain: about 3.06%
[4]
  crystal form re-identified after DVS testing: did not change
  desorption process of the sample versus its adsorption process: substantially overlapped
[4]; extreme conditions (90% RH)
  hygroscopic weight gain: about 3.18%
[4]; [9]
  hygroscopic weight gain: about 3.00%
